Results as given in ChEMBL document CHEMBL1201862, “PubChem BioAssay data set” (2004).
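Grown in 96-well plates, cells were treated for 48 hours with each compound at five concentrations. Insufficient inhibition: endpoint recorded as highest concentration tested. Here, GI50 denotes the concentration required for 50% inhibition of growth.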 Active and inactive are the calls of the source. Cut-off read from the data, not from the text of the source: active = GI50 up to about 1.1 µM and inactive = higher.

Tests used:
Assay in all cases: NCI anticancer screen, dose series, 48 h
[1] = test system: A498
[2] = test system: RXF 393
[3] = test system: T47D
[4] = test system: UACC-257
[5] = test system: IGROV-1
[6] = test system: COLO 205
[7] = test system: SNB-19
[8] = test system: K562
[9] = test system: RPMI-8226
[10] = test system: NCI-H226
[11] = test system: SR
[12] = test system: NCI-H23
[13] = test system: OVCAR-8
[14] = test system: CCRF-CEM
[15] = test system: MDA-N
[16] = test system: A549
[17] = test system: HOP-62
[18] = test system: U-251
[19] = test system: NCI-H522
[20] = test system: UO-31

Row | Compound | GI50 [1] | GI50 [2] | GI50 [3] | GI50 [4] | GI50 [5] | GI50 [6] | GI50 [7] | GI50 [8] | GI50 [9] | GI50 [10] | GI50 [11] | GI50 [12] | GI50 [13] | GI50 [14] | GI50 [15] | GI50 [16] | GI50 [17] | GI50 [18] | GI50 [19] | GI50 [20]
1 | CC(=O)NC(Cc1c[nH]c2ccccc12)C(=O)O (centres undefined) | > 100 µM (inactive) | > 100 µM (inactive) | > 100 µM (inactive) | 26.2 µM (inactive) | > 100 µM (inactive) | > 100 µM (inactive) | > 100 µM (inactive) | > 100 µM (inactive) | > 100 µM (inactive) | > 100 µM (inactive) | > 100 µM (inactive) | > 100 µM (inactive) | > 100 µM (inactive) | > 100 µM (inactive) | > 100 µM (inactive) | > 100 µM (inactive) | > 100 µM (inactive) | > 100 µM (inactive) | > 100 µM (inactive) | > 100 µM (inactive)
2 | Cc1cc(O)c(O)c(Oc2cc(C)cc(O)c2O)c1 | > 100 µM (inactive) | 24.5 µM (inactive) | 26.7 µM (inactive) | 6.07 µM (inactive) | 12.4 µM (inactive) | 20.1 µM (inactive) | 35.9 µM (inactive) | 15.1 µM (inactive) | 31.1 µM (inactive) | 18.4 µM (inactive) | 6.7 µM (inactive) | 25.6 µM (inactive) | 16.2 µM (inactive) | 2.37 µM (inactive) | 18.7 µM (inactive) | 73.1 µM (inactive) | 67.6 µM (inactive) | 9.79 µM (inactive) | 15 µM (inactive) | 18.5 µM (inactive)
3 | CC(C)OC(=O)c1ccc(NCc2cc(O)ccc2O)cc1Cl | 11 µM (inactive) | 2.61 µM (inactive) | 1.56 µM (inactive) | 11.4 µM (inactive) | 2.31 µM (inactive) | 2.3 µM (inactive) | 2.64 µM (inactive) | 0.501 µM (active) | 0.202 µM (active) | 8.22 µM (inactive) | 0.695 µM (active) | 4.39 µM (inactive) | 2.77 µM (inactive) | 0.258 µM (active) | 3.18 µM (inactive) | 12 µM (inactive) | 18.9 µM (inactive) | 3.95 µM (inactive) | 0.206 µM (active) | 0.993 µM (active)
4 | CN(C)CCCNC(=O)c1cc2/c(=C\c3ccc(N(C)C)cc3)c3ccccc3n2[n+]1C | 6.04 µM (inactive) | > 100 µM (inactive) | 1.45 µM (inactive) | 21.4 µM (inactive) | 15.7 µM (inactive) | 8.73 µM (inactive) | 24.8 µM (inactive) | 8.83 µM (inactive) | 20.4 µM (inactive) |  | 23.3 µM (inactive) | 21.3 µM (inactive) | 40.8 µM (inactive) | 35.1 µM (inactive) | 24.4 µM (inactive) | > 100 µM (inactive) | 48.3 µM (inactive) | 22.4 µM (inactive) | 2.64 µM (inactive) | > 100 µM (inactive)
5 | O=C1c2nc3n(c2C(=O)c2c1nc1n2CCC1)CCC3 | 16 µM (inactive) | 2.74 µM (inactive) | > 10 µM (inactive) | 2.2 µM (inactive) | 11.5 µM (inactive) | 5.89 µM (inactive) | 14.7 µM (inactive) | 13 µM (inactive) | 15.1 µM (inactive) | 6.97 µM (inactive) | 3.01 µM (inactive) | 2.49 µM (inactive) | 5.46 µM (inactive) | 6.41 µM (inactive) | 1.77 µM (inactive) | 4.39 µM (inactive) | 4.62 µM (inactive) | 6.79 µM (inactive) | 6.44 µM (inactive) | 18.8 µM (inactive)
6 | Clc1ccc(-c2nc3cc(C45CC6CC(CC(C6)C4)C5)ccc3[nH]2)cc1 | > 95.7 µM (inactive) | 72.6 µM (inactive) | 24.2 µM (inactive) | 10.7 µM (inactive) | > 100 µM (inactive) | 7.43 µM (inactive) | 44.4 µM (inactive) | < 0.01 µM (active) | 4.21 µM (inactive) | > 65 µM (inactive) | 5.64 µM (inactive) | 52.4 µM (inactive) | 28.7 µM (inactive) | 8.3 µM (inactive) | 32.1 µM (inactive) | 14.8 µM (inactive) | 37.8 µM (inactive) | 20.1 µM (inactive) | 19.2 µM (inactive) | 15.3 µM (inactive)
7 | COC(=O)c1ccc(NC(=O)O/N=C(\Cl)C(C)C)cc1 | 18.4 µM (inactive) | 6.21 µM (inactive) | 2 µM (inactive) | 15.2 µM (inactive) | 13.9 µM (inactive) | 1.94 µM (inactive) | 16.9 µM (inactive) | 1.3 µM (inactive) | 1.83 µM (inactive) | 18.9 µM (inactive) | 1.18 µM (inactive) | 17.1 µM (inactive) | 14 µM (inactive) | 0.466 µM (active) | 8.89 µM (inactive) | 19.5 µM (inactive) | 18.7 µM (inactive) | 16.6 µM (inactive) | 0.32 µM (active) | 15.4 µM (inactive)
8 | COc1cc(/C=C2\C(=O)N(Cc3ccccc3)C(c3ccccc3)S2(=O)=O)cc(OC)c1OC (centres undefined) | 21.4 µM (inactive) | 62.7 µM (inactive) | 29.2 µM (inactive) | 26.2 µM (inactive) |  | 21.3 µM (inactive) | > 100 µM (inactive) | 5.12 µM (inactive) |  | 50.6 µM (inactive) | 14.3 µM (inactive) | 33.4 µM (inactive) | 37.2 µM (inactive) | 36.5 µM (inactive) | 61.8 µM (inactive) | 29.9 µM (inactive) | > 100 µM (inactive) | 92.3 µM (inactive) | 14.2 µM (inactive) | 21.8 µM (inactive)
9 | O=C(O)CSCc1cc2c(O)c(c1)Cc1cc(CSCC(=O)O)cc(c1O)Cc1cc(CSCC(=O)O)cc(c1O)Cc1cc(CSCC(=O)O)cc(c1O)C2 | > 100 µM (inactive) | > 100 µM (inactive) | > 100 µM (inactive) | > 100 µM (inactive) | > 100 µM (inactive) | > 100 µM (inactive) | > 100 µM (inactive) | > 100 µM (inactive) | > 100 µM (inactive) | 89.5 µM (inactive) | > 100 µM (inactive) | > 100 µM (inactive) | > 100 µM (inactive) | > 100 µM (inactive) | > 100 µM (inactive) | > 100 µM (inactive) | > 100 µM (inactive) | > 100 µM (inactive) | > 100 µM (inactive) | > 100 µM (inactive)
10 | CCN1CCC(O)(c2ccc(Oc3ccccc3)cc2)C(C(=O)c2ccc(Oc3ccccc3)cc2)C1 (centres undefined) | 14 µM (inactive) | 22.2 µM (inactive) | 11.6 µM (inactive) | 12.7 µM (inactive) | 15.4 µM (inactive) | 13.6 µM (inactive) | 14.6 µM (inactive) | 13.7 µM (inactive) | 2.46 µM (inactive) |  | 5.74 µM (inactive) | 13.4 µM (inactive) | 17.1 µM (inactive) | 5.81 µM (inactive) | 13.8 µM (inactive) | 13.5 µM (inactive) | 11.9 µM (inactive) | 11.6 µM (inactive) | 19.6 µM (inactive) | 7.94 µM (inactive)
11 | O=C(O)CSc1ncccc1[N+](=O)[O-] | > 100 µM (inactive) | > 100 µM (inactive) | > 100 µM (inactive) | > 100 µM (inactive) | > 100 µM (inactive) | > 100 µM (inactive) | > 100 µM (inactive) | > 100 µM (inactive) |  | > 100 µM (inactive) | > 100 µM (inactive) | > 100 µM (inactive) | > 100 µM (inactive) | > 100 µM (inactive) | > 100 µM (inactive) | > 100 µM (inactive) | > 100 µM (inactive) | > 100 µM (inactive) | > 100 µM (inactive) | > 100 µM (inactive)
12 | COc1ccc(C2=C(Cl)C(=O)O/C2=C\c2ccc(OC)c(Br)c2)cc1Cl | 17.3 µM (inactive) | 18.3 µM (inactive) | 58.9 µM (inactive) | > 100 µM (inactive) | 33.7 µM (inactive) | > 100 µM (inactive) | 31.8 µM (inactive) | 35.2 µM (inactive) | > 100 µM (inactive) |  | 51.8 µM (inactive) | 16.3 µM (inactive) | 22.7 µM (inactive) | 28.1 µM (inactive) | > 100 µM (inactive) | 33.3 µM (inactive) | 14.6 µM (inactive) | 14.1 µM (inactive) | 25.6 µM (inactive) | 53.1 µM (inactive)
13 | CCCc1cc(O)c2c(C)c3[nH]c4ccc(Cl)cc4c3c(C)c2n1 | 1.49 µM (inactive) | 1.51 µM (inactive) | 1.85 µM (inactive) | 2 µM (inactive) | 2.13 µM (inactive) | 2 µM (inactive) | 2.55 µM (inactive) |  |  | 2.81 µM (inactive) | 1.88 µM (inactive) | 2.91 µM (inactive) | 2.55 µM (inactive) | 2.07 µM (inactive) | 1.9 µM (inactive) | 2.24 µM (inactive) | 2.2 µM (inactive) | 1.69 µM (inactive) | 1.87 µM (inactive) | 1.75 µM (inactive)
14 | CC(CCc1nc2ccccc2s1)(c1ccc(O)cc1)c1ccc(O)cc1 | 20.7 µM (inactive) | 18 µM (inactive) | 24.8 µM (inactive) | 15.3 µM (inactive) | 14.2 µM (inactive) |  | 17.5 µM (inactive) | 15.4 µM (inactive) |  | 22.3 µM (inactive) | 13.6 µM (inactive) | 17.6 µM (inactive) | 21.7 µM (inactive) |  | 16.5 µM (inactive) | 18.3 µM (inactive) | 17.7 µM (inactive) | 14.6 µM (inactive) | 15 µM (inactive) | 16.1 µM (inactive)
